Measured values reported in patent EP0314154A2, “Tetrahydrofuro- and thieno(2,3-c)pyridines, their use as a medicament and process for their preparation” (BOEHRINGER INGELHEIM KG, priority 1987, dated 1989).

Key:
[1] = biological target: T1, Rezeptorsubtyp M₂ (Rattus norvegicus, UniProt P10980); experiment: Muscarinic receptor binding study, M₂ subtype, heart, [³H]N-methylscopolamine; conditions: Organ Herz, [³H]Ligand N-Methylscopolamin, kind of constant not stated
T1 construct: Herz; from tissue; host or cells: heart
T1 sequence (P10980 1-466): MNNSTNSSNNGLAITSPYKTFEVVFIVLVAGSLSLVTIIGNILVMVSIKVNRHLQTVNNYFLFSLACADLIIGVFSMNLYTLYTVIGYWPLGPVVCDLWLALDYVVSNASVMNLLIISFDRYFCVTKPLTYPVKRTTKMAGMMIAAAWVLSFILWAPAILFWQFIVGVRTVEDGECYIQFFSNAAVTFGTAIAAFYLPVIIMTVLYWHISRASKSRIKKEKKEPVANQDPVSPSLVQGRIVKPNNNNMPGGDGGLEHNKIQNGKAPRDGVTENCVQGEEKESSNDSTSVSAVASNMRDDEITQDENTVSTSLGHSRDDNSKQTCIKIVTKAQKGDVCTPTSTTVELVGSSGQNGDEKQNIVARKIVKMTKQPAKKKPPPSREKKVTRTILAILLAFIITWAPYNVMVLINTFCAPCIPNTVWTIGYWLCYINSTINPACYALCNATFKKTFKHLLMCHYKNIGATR
Source text: (§1) Die Rezeptorbindungsstudien im muskarinisch cholinergen System wurden an den drei Rezeptorsubtypen gemäß den untenstehenden Literaturzitaten ausgeführt (Watson, M., H. I. Yamamura and W.R. Roeske 1983, Life Sci. 32, 3001-3011; Hammer, R., C.P. Berrie, N.I.M. Birdsall, A.S.V. Burgen and E.C. Hulme 1980, Nature 283, 90-92; Hammer, R., E. Giraldo, G.B. Schiavi, E. Monferini and H. Ladinsky 1986, Life Sci. 38, 1653-1662;).

[2] = biological target: T2, Rezeptorsubtyp M₁ (Rattus norvegicus, UniProt P08482); experiment: Muscarinic receptor binding study, M₁ subtype, hippocampus, [³H]pirenzepine; conditions: Organ HIPPOCAMPUS, [³H]Ligand Pirenzepin, kind of constant not stated
T2 construct: HIPPOCAMPUS; from tissue; host or cells: hippocampus
T2 sequence (P08482 1-460): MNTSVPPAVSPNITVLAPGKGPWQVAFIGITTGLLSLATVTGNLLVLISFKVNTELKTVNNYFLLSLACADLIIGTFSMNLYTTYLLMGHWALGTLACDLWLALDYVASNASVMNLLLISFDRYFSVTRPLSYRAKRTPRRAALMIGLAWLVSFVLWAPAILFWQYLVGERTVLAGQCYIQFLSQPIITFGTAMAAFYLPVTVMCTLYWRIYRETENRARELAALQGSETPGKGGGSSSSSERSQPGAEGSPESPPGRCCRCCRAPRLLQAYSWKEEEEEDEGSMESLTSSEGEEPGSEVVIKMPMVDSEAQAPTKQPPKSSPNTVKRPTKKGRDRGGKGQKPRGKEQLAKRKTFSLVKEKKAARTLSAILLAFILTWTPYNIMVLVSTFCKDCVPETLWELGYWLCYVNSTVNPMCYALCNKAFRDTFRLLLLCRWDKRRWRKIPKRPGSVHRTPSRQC
Source text: as §1

[3] = biological target: Agonisten Bindungsstelle; experiment: [³H]cis-methyldioxolane binding study (muscarinic agonist binding site); conditions: [³H]Ligand cis-Methyldioxolan
Source text: Die erfindungsgemäßen Verbindungen verdrängen den muscarinen Agonisten mit hoher Affinität von der Agonisten Bindungsstelle. Die Durchführung der [3H]cis-Methyldioxolan-Bindungsstudien erfolgen analog zu A Closs et al., Naunyn Schmiedebergs Arch. Pharmacol 335, 372-377 (1987). Die Ergebnisse sind in Tabelle Ia zusammengestellt Tabelle Ia: […]

[4] = biological target: T3, Rezeptorsubtyp M₃ (Rattus norvegicus, UniProt P08483); experiment: Muscarinic receptor binding study, M₃ subtype, lacrimal gland, [³H]N-methylscopolamine; conditions: Organ Tränendrüse, [³H]Ligand N-Methylscopolamin, kind of constant not stated
T3 construct: Tränendrüse; from tissue; host or cells: lacrimal gland
T3 sequence (P08483 whole entry): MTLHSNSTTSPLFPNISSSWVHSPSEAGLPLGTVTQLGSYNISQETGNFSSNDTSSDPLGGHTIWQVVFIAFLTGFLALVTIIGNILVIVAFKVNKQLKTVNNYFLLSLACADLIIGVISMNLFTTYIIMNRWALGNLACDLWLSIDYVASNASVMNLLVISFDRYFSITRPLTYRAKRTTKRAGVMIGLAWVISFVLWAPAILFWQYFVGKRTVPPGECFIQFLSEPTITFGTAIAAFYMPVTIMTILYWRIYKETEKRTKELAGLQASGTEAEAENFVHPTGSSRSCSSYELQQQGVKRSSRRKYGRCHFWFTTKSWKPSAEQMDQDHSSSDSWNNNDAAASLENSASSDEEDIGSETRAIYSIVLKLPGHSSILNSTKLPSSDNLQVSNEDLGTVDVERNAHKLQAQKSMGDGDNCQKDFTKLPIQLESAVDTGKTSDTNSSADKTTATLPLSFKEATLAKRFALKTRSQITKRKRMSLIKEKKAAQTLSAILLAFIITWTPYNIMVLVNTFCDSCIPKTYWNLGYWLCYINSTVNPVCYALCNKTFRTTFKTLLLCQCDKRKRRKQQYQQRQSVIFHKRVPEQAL
Source text: as §1

[5] = EEG of the awake rabbit (arousal reaction); type: in vivo; conditions: waches Kaninchen
Source text: Die erfindungsgemäßen tertiären Amine der allgemeinen Formel I zeigen Affinitäten zu muscarinen Rezeptoren im ZNS und im Tierexperiment muscarine agonistische Eigenschaften im ZNS.

[6] = Haloperidol-induced dyskinesias in haloperidol-sensitised monkeys; type: in vivo; conditions: gegen Haloperidol sensibilisierte Affen; Dosis < 1 mg/kg i.m

Row | Compound | Rezeptorbindung [1] | Rezeptorbindung [2] | Rezeptorbindung [4] | Ki [3] [nM] | Arousal-Reaktion im EEG ([5]; 1 mg/kg i.v.) | Arousal-Reaktion im EEG ([5]; 3 mg/kg p.o.) | Dyskinesien zusammen mit unterschwelligen Dosen (Haloperidol) [6] | durch Haloperidol hervorgerufene Dyskinesien [6]
1 | CCN1CCc2c(oc(C)c2C)C1 [X=O, R₁=CH₃, R₂=CH₃, R₃=H, R₄=Et, R₅=H] | 3,2 µMol | 3,2 µMol | – | – | – | – | – | –
2 | Cc1cc2c(o1)CN(C)CC2 [X=O, R₁=CH₃, R₂=H, R₃=H, R₄=CH₃, R₅=H, 2,6-Dimethyl-4,5,6,7-tetrahydrofuro[2,3-c]pyridin] | 6,5 µMol | 8,3 µMol | 24,2 µMol | 81 | eine für Cholinomimetica typische Arousal-Reaktion | eine für Cholinomimetica typische Arousal-Reaktion | – | –
3 | CCc1cc2c(o1)CN(C)CC2 [X=O, R₁=Et, R₂=H, R₃=H, R₄=CH₃, R₅=H, 2-Ethyl-6-methyl-4,5,6,7-tetrahydro-furo[2,3-c]pyridin] | 1,0 µMol | 1,4 µMol | – | 52 | – | – | – | –
4 | CCCc1cc2c(o1)CN(C)CC2 [X=O, R₁=N-Pr, R₂=H, R₃=H, R₄=CH₃, R₅=H, 6-Methyl-2-n-propyl-4,5,6,7,-tetrahydro-furo[2.3-c]pyridin] | – | – | – | 53 | – | – | – | –
5 | CCCCc1cc2c(o1)CN(C)CC2 [X=O, R₁=n-Bu, R₂=H, R₃=H, R₄=CH₃, R₅=H, 6-Methyl-2-n-butyl-4,5,6,7,-tetrahydro-furo[2.3-c]pyridin] | 0,7 µMol | 0,5 µMol | – | 39 | – | – | – | –
6 | CCCc1cc2c(o1)CNCC2 [X=O, R₁=n-Pr, R₂=H, R₃=H, R₄=H, R₅=H] | – | – | – | 160 | – | – | – | –

Continued, in another order:

Row | Rezeptorbindung [1] | Rezeptorbindung [2] | Rezeptorbindung [4] | Compound | Ki [3] [nM] | Arousal-Reaktion im EEG ([5]; 1 mg/kg i.v.) | Arousal-Reaktion im EEG ([5]; 3 mg/kg p.o.) | Dyskinesien zusammen mit unterschwelligen Dosen (Haloperidol) [6] | durch Haloperidol hervorgerufene Dyskinesien [6]
7 | 2,5 µMol | 0,8 µMol | 2,7 µMol | CC(C)Cc1cc2c(o1)CN(C)CC2 [X=O, R₁=iso-Bu, R₂=H, R₃=H, R₄=CH₃, R₅=H, 6-Methyl-2-iso-butyl-4,5,6,7,-tetrahydro-furo[2.3-c]pyridin] | – | – | – | – | –
8 | 8,4 µMol | 5,8 µMol | 34,1 µMol | Cc1cc2c(s1)CN(C)CC2C (stereo not drawn) [X=S, R₁=CH₃, R₂=H, R₃=H, R₄=CH₃, R₅=CH₃, 2,4,6-Trimethyl-4,5,6,7-tetrahydrothieno[2,3-c]pyridin] | – | – | – | – | –
9 | 14 µmol | 7,5 µMol | 53,1 µMol | Cc1cc2c(s1)CN(C)CC2 [X=S, R₁=CH₃, R₂=H, R₃=H, R₄=CH₃, R₅=H, 2,6-Dimethyl-4,5,6,7-tetrahydrothieno[2,3-c]pyridin] | – | – | – | lösen zusammen mit unterschwelligen Dosen Dyskinesien aus | verstärken
10 | 4,5 µMol | 2,2 µMol | 11,4 µMol | CCN1CCc2cc(C)sc2C1 [X=S, R₁=CH₃, R₂=H, R₃=H, R₄=Et, R₅=H, 6-Ethyl-2-methyl-4,5,6,7-tetrahydrothieno[2,3-c]pyridin] | – | – | – | – | –
11 | >100 µmol | 39,6 µMol | >100 µmol | Cc1cc2c(s1)CNCC2 [X=S, R₁=CH₃, R₂=H, R₃=H, R₄=H, R₅=H, 2-Methyl-4,5,6,7,-tetrahydro-thieno[2,3-c]pyridin] | – | – | – | – | –
12 | >100 µmol | 36,3 µMol | >100 µmol | CN1CCc2ccsc2C1 [X=S, R₁=H, R₂=H, R₃=H, R₄=CH₃, R₅=H, 6-Methyl-4,5,6,7,-tetrahydro-thieno[2,3-c]pyridin] | – | – | – | – | –
